Reference: US20230263758A1, “COMPOSITIONS OF EDTA HAVING ACTIVITY AGAINST PLANKTONIC AND BIOFILM CELLS OF CLINICALLY RELEVANT PATHOGENS” (SterileCare Inc., priority 2022, published 2023)
Where a name gives a salt, the structure may show the parent alone.

Key:
[1] = system: Proteus mirabilis ON153; assay: Checkerboard FBEC index, 48-h biofilm; type: cell-based; conditions: P. mirabilis ON153 biofilm; EDTA + chlorhexidine HCl
Protocol: (§3) In step (4), microtiter plates are incubated at 37° C. for 24 h. then (6), after incubation, the bacterial and fungal cells were dislodged from the pegs into the recovery medium described above.
(§4) Three 10-μL aliquots, for a total of 30 μL from each well of recovery medium, were spotted on MH agar plates and incubated for 24 h at 37° C. […] The FBEC determination is a modification of the FICI.

[2] = system: MRSA ON184; assay: MIC, micro broth dilution; type: cell-based, Staphylococcus aureus; conditions: agent alone
Protocol: (§1) An assay was made using a minimum inhibitory concentration (MIC) and minimum bactericidal concentration (MBC) and minimum fungicidal concentration (MFC) determination. The MIC was determined by the micro broth dilution method in 96-well plates. Serial two-fold dilutions of tetrasodium EDTA (from 2% to 0.015%), ethanol (from 50% to 0.1%) and chlorhexidine HCl (from 100 μg/mL to 0.025 μg/mL) were prepared in MH broth with a final volume of 90 μL per well. A 10 μL containing 1×10^5 bacterial cells or 2×10^3 fungal cells were added to each well. The inoculated plates were covered with a lid, sealed with Parafilm, and incubated for 24 h at 37° C. with slight rocking on a tilting platform shaker. After incubation, the optical density at 600 nm (OD 600) of the cultures in each well was measured using an xMark™ Microplate Absorbance Spectrophotometer (Bio-Rad). […] MBCs and MFCs were determined by transferring 100 μL from each well with no apparent growth onto appropriate agar plates, followed by incubation for 24 h at 37° C.

[3] = system: E. coli SK2; assay: MIC, micro broth dilution; type: cell-based, Escherichia coli; conditions: agent alone
Protocol: as §1

[4] = system: Candida albicans SK4b; assay: MBC/MFC determination; type: cell-based; conditions: C. albicans SK4b; agent alone
Protocol: as §1

[5] = system: Escherichia coli ON29; assay: MBC/MFC determination; type: cell-based; conditions: E. coli ON29; agent alone
Protocol: as §1

[6] = system: Proteus mirabilis ON153; assay: MBC/MFC determination; type: cell-based; conditions: P. mirabilis ON153; agent alone
Protocol: as §1

[7] = system: Pseudomonas aeruginosa SK1; assay: MBC/MFC determination; type: cell-based; conditions: P. aeruginosa SK1; agent alone
Protocol: as §1

[8] = system: Serratia marcescens SK2; assay: MBC/MFC determination; type: cell-based; conditions: S. marcescens SK2; agent alone
Protocol: as §1

[9] = system: Staphylococcus aureus ON89; assay: MBC/MFC determination; type: cell-based; conditions: S. aureus ON89; agent alone
Protocol: as §1

[10] = system: Staphylococcus epidermidis ON170; assay: MBC/MFC determination; type: cell-based; conditions: S. epidermidis ON170; agent alone
Protocol: as §1

[11] = system: Stenotrophomonas maltophilia ON17; assay: MBC/MFC determination; type: cell-based; conditions: S. maltophilia ON17; agent alone
Protocol: as §1

[12] = system: MRSA ON184; assay: MBC/MFC determination; type: cell-based, Staphylococcus aureus; conditions: agent alone
Protocol: as §1

[13] = system: E. coli SK2; assay: MBC/MFC determination; type: cell-based, Escherichia coli; conditions: agent alone
Protocol: as §1

[14] = system: C. albicans ON47; assay: MBC/MFC determination; type: cell-based, Candida albicans; conditions: agent alone
Protocol: as §1

[15] = system: Candida albicans SK4b; assay: MBEC assay, 48-h biofilm; type: cell-based; conditions: C. albicans SK4b 48-h biofilm; 24 h exposure
Protocol: (§2) A biofilm cultivation cell composition was provided. This fifth composition was created using an MBEC Assay® biofilm inoculator, consisting of a polystyrene lid with 96 downward-protruding pegs and a corresponding base used to grow biofilms. A standardized inoculum was diluted in an appropriate biofilm growth medium to achieve a viable cell count of 1.5×10^6 CFU/mL of bacterial cells or 5×10^5 CFU/mL of fungal cells. Then, 150 μL of this inoculum was transferred into each appropriate well, and the peg lids were inserted into the microtiter plates. The plates were sealed with Parafilm and were incubated at optimum temperature for 48 h with slight rocking for bacteria and shaking at 200 rpm for fungal strains. After incubation, the peg lid was removed from the base and rinsed twice with sterile phosphate-buffered saline (PBS) for 2 min to remove loosely attached non-sessile cells. Before the antimicrobial challenge, the pegs in column 1 (n=8) were considered the biofilm growth control; these pegs were removed from the lids, placed into 200 μL of recovery medium, and analyzed for starting biofilm cell numbers as described below. The rinsed pegs were placed into new 96-well plates containing two-fold dilutions of antimicrobials such as tetrasodium EDTA (4%-0.0125%), ethanol (100%-0.2%), and chlorhexidine HCl (100 μg/mL-0.4 μg/mL) in 200 μL of suitable biofilm growth medium per well and incubated at optimum temperature for 24 h. After the antimicrobial challenge, the pegs were rinsed twice with sterile PBS for 2 min and placed into a new 96-well plate containing 200 μL of recovery medium. The recovery plates were sealed with Parafilm, and biofilm cells were dislodged from the pegs by sonication for 30 min with a Branson 3510 bath sonicator. The biofilm cells in the recovery medium were serially diluted, and a drop dilution assay was performed to enumerate the viable cells. MBEC values were determined as the minimum concentration of antimicrobials that yielded a viable cell count at or lower than the 125 CFU/mL detection limit.

[16] = system: Escherichia coli SK2; assay: MBEC assay, 48-h biofilm; type: cell-based; conditions: E. coli SK2 48-h biofilm; 24 h exposure
Protocol: as §2

[17] = system: Proteus mirabilis ON153; assay: MBEC assay, 48-h biofilm; type: cell-based; conditions: P. mirabilis ON153 48-h biofilm; 24 h exposure
Protocol: as §2

[18] = system: Pseudomonas aeruginosa SK1; assay: MBEC assay, 48-h biofilm; type: cell-based; conditions: P. aeruginosa SK1 48-h biofilm; 24 h exposure
Protocol: as §2

[19] = system: Staphylococcus aureus ON89; assay: MBEC assay, 48-h biofilm; type: cell-based; conditions: S. aureus ON89 48-h biofilm; 24 h exposure
Protocol: as §2

[20] = system: Staphylococcus epidermidis SK9; assay: MBEC assay, 48-h biofilm; type: cell-based; conditions: S. epidermidis SK9 48-h biofilm; 24 h exposure
Protocol: as §2

[21] = system: C. albicans ON47; assay: MBEC assay, 48-h biofilm; type: cell-based, Candida albicans; conditions: C. albicans ON47 48-h biofilm; 24 h exposure
Protocol: A biofilm cultivation cell composition was provided. This fifth composition was created using an MBEC Assay® biofilm inoculator, consisting of a polystyrene lid with 96 downward-protruding pegs and a corresponding base used to grow biofilms. A standardized inoculum was diluted in an appropriate biofilm growth medium to achieve a viable cell count of 1.5×10^6 CFU/mL of bacterial cells or 5×10^5 CFU/mL of fungal cells. Then, 150 μL of this inoculum was transferred into each appropriate well, and the peg lids were inserted into the microtiter plates. The plates were sealed with Parafilm and were incubated at optimum temperature for 48 h with slight rocking for bacteria and shaking at 200 rpm for fungal strains. After incubation, the peg lid was removed from the base and rinsed twice with sterile phosphate-buffered saline (PBS) for 2 min to remove loosely attached non-sessile cells. Before the antimicrobial challenge, the pegs in column 1 (n=8) were considered the biofilm growth control; these pegs were removed from the lids, placed into 200 μL of recovery medium, and analyzed for starting biofilm cell numbers as described below. […] MBEC values were determined as the minimum concentration of antimicrobials that yielded a viable cell count at or lower than the 125 CFU/mL detection limit.

[22] = system: MRSA ON184; assay: Checkerboard FBEC index, 48-h biofilm; type: cell-based, Staphylococcus aureus; conditions: EDTA + chlorhexidine HCl
Protocol: as §3, §4

[23] = system: Candida albicans SK4b; assay: Checkerboard FBEC index, 48-h biofilm; type: cell-based; conditions: C. albicans SK4b biofilm; EDTA + chlorhexidine HCl
Protocol: as §3, §4

[24] = system: C. albicans ON47; assay: Checkerboard FBEC index, 48-h biofilm; type: cell-based, Candida albicans; conditions: EDTA + chlorhexidine HCl
Protocol: as §3
Three 10-μL aliquots, for a total of 30 μL from each well of recovery medium, were spotted on MH agar plates and incubated for 24 h at 37° C.

In the case of [H]/N=C(\N/C(=N/[H])NCCCCCCNC(=N)NC(=N)Nc1ccc(Cl)cc1)Nc1ccc(Cl)cc1 [Chlorhexidine HCl, chlorhexidine HCl, reference compound], the “Biofilm eradication concentration in combination (FBEC)” value (“Biofilm eradication concentration” for short) [1] is reported as 3.125 µg/mL.
Molecule O=C([O-])CN(CCN(CC(=O)[O-])CC(=O)[O-])CC(=O)[O-].[Na+].[Na+].[Na+].[Na+] [EDTA, tetrasodium EDTA] has an MIC [2] of 0.063 % w/v, an MIC [3] of 0.5 % w/v and an MBC/MFC [4] of 1 % w/v. For the same molecule, the MBC/MFC [5] was 1 % w/v, the MBC/MFC [6] was 2 % w/v and the MBC/MFC [7] was 1 % w/v. It also gave an MBC/MFC [8] of 2 % w/v, an MBC/MFC [9] of 1 % w/v and an MBC/MFC [10] of 0.5 % w/v. The MBC/MFC [11] was 1 % w/v, the MBC/MFC [12] was 2 % w/v and the MBC/MFC [13] was 0.5 % w/v. The MBC/MFC [14] was 1 % w/v, the MBEC [15] was 1 % w/v and the MBEC [16] was 2 % w/v. It also gave an MBEC [17] of 4 % w/v, an MBEC [18] of 4 % w/v and an MBEC [19] of 4 % w/v. The MBEC [20] was 2 % w/v, the MBEC [21] was 1 % w/v and the “Biofilm eradication concentration” value [22] was 0.031 % w/v. For the same molecule, the “Biofilm eradication concentration” value [23] was 0.063 % w/v and the “Biofilm eradication concentration” value [24] was 0.031 % w/v.
